# Reference: article PMC3469757 (Journal of medicinal chemistry, 2012)
# pIC50: −log10 of the molar value.
# Biological target: human TRPV1 (Homo sapiens, UniProt Q8NER1)
# Experiment: pH assay
# Assay type: cell-based
# Settings: read-out: IC50 [pH]; hTRPV1 in CHO cells, activator pH 6.0 to 6.3
# Chain of human TRPV1 (Q8NER1 whole entry): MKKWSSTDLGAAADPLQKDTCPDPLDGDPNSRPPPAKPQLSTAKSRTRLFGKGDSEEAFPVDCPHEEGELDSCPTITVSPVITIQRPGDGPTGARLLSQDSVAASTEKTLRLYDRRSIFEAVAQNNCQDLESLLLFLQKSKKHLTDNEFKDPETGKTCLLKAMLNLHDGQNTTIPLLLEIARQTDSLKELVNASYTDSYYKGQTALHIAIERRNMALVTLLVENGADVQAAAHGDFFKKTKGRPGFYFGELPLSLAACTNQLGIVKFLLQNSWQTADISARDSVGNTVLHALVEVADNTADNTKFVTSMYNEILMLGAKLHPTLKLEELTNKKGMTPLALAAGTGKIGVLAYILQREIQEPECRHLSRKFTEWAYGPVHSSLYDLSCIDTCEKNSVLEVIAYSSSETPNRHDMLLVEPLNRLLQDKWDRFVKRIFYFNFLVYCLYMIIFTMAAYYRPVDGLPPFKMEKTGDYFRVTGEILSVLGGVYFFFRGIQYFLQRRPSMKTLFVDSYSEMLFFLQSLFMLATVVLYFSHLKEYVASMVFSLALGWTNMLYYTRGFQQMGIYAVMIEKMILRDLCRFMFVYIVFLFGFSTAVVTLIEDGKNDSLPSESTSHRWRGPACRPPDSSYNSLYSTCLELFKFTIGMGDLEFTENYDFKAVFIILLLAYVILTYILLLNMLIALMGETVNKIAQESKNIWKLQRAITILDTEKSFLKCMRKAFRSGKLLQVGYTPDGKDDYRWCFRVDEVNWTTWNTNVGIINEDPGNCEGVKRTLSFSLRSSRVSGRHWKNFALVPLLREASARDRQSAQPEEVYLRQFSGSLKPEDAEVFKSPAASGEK
row,pIC50,SMILES
1,< 5.00,"CC(C)(C)c1ccc(CNC(=S)NCc2ccc(NS(C)(=O)=O)c(F)c2)cc1 [Compound 1, reference compound]"
2,< 5.00,"O=C(/C=C/c1ccc(C(F)(F)F)nc1N1CCCCC1)Nc1ccc2cccnc2c1 [Compound 3, reference compound]"
3,< 5.00,"CC(C(=O)NCc1ccc(C(F)(F)F)nc1Nc1ccc(F)cc1)c1ccc(NS(C)(=O)=O)c(F)c1 (stereo not shown) [Compound 18, 2-(3-Fluoro-4-(methylsulfonamido)phenyl)-N-((2-((4-fluorophenyl)amino)-6-(trifluoromethyl)pyridin-3-yl)methyl)propanamide]"
4,< 5.00,"CC(C(=O)NCc1ccc(C(F)(F)F)nc1NCc1ccccn1)c1ccc(NS(C)(=O)=O)c(F)c1 (stereo not shown) [Compound 24, 2-(3-Fluoro-4-(methylsulfonamido)phenyl)-N-((2-((pyridin-2-ylmethyl)amino)-6-(trifluoromethyl)pyridin-3-yl)methyl)propanamide]"
5,< 5.00,"CC(C(=O)NCc1ccc(C(F)(F)F)nc1NCc1cccnc1)c1ccc(NS(C)(=O)=O)c(F)c1 (stereo not shown) [Compound 25, 2-(3-Fluoro-4-(methylsulfonamido)phenyl)-N-((2-((pyridin-3-ylmethyl)amino)-6-(trifluoromethyl)pyridin-3-yl)methyl)propanamide]"
6,< 5.00,"CC(C(=O)NCc1ccc(C(F)(F)F)nc1NCc1ccncc1)c1ccc(NS(C)(=O)=O)c(F)c1 (stereo not shown) [Compound 26, 2-(3-Fluoro-4-(methylsulfonamido)phenyl)-N-((2-((pyridin-4-ylmethyl)amino)-6-(trifluoromethyl)pyridin-3-yl)methyl)propanamide]"
7,< 5.00,"CC1CCCN1c1nc(C(F)(F)F)ccc1CNC(=O)[C@@H](C)c1ccc(NS(C)(=O)=O)c(F)c1 (stereo partly drawn) [Compound 34, (2S)-2-(3-Fluoro-4-(methylsulfonamido)phenyl)-N-((2-(2-methylpyrrolidin-1-yl)-6-(trifluoromethyl)pyridin-3-yl)methyl)propanamide]"
8,< 5.00,"C[C@H](C(=O)NCc1ccc(C(F)(F)F)nc1N1CCC[C@H]1CO)c1ccc(NS(C)(=O)=O)c(F)c1 [Compound 35, (S)-2-(3-Fluoro-4-(methylsulfonamido)phenyl)-N-((2-((S)-2-(hydroxymethyl)pyrrolidin-1-yl)-6-(trifluoromethyl)pyridin-3-yl)methyl)propanamide]"
9,< 5.00,"C[C@H](C(=O)NCc1ccc(C(F)(F)F)nc1N1CCC[C@H]1C(=O)N(C)C)c1ccc(NS(C)(=O)=O)c(F)c1 [Compound 36, (S)-1-(3-(((S)-2-(3-Fluoro-4-(methylsulfonamido)phenyl)propanamido)methyl)-6-(trifluoromethyl)pyridin-2-yl)-N,N-dimethylpyrrolidine-2-carboxamide]"
10,< 5.00,"C[C@H](C(=O)NCc1ccc(C(F)(F)F)nc1N1CC[C@@H](O)C1)c1ccc(NS(C)(=O)=O)c(F)c1 [Compound 38, (S)-2-(3-Fluoro-4-(methylsulfonamido)phenyl)-N-((2-((R)-3-hydroxypyrrolidin-1-yl)-6-(trifluoromethyl)pyridin-3-yl)methyl)propanamide]"
11,< 5.00,"CC(C(=O)NCc1ccc(C(F)(F)F)nc1N1CCCCC1C)c1ccc(NS(C)(=O)=O)c(F)c1 (stereo not shown) [Compound 47, 2-(3-Fluoro-4-(methylsulfonamido)phenyl)-N-((2-(2-methylpiperidin-1-yl)-6-(trifluoromethyl)pyridin-3-yl)methyl)propanamide]"
12,< 5.00,"CC1CCCN(c2nc(C(F)(F)F)ccc2CNC(=O)C(C)c2ccc(NS(C)(=O)=O)c(F)c2)C1 (stereo not shown) [Compound 48, 2-(3-Fluoro-4-(methylsulfonamido)phenyl)-N-((2-(3-methylpiperidin-1-yl)-6-(trifluoromethyl)pyridin-3-yl)methyl)propanamide]"
13,< 5.00,"CC(C(=O)NCc1ccc(C(F)(F)F)nc1N1CCC(=O)CC1)c1ccc(NS(C)(=O)=O)c(F)c1 (stereo not shown) [Compound 64, 2-(3-Fluoro-4-(methylsulfonamido)phenyl)-N-((2-(4-oxopiperidin-1-yl)-6-(trifluoromethyl)pyridin-3-yl)methyl)propanamide]"
